Experimental data taken from paper PMC7614683, “A small molecule PI3Kα activator for cardioprotection and neuroregeneration” (Nature, 2023).

Target: T1, full length p110α/p85α (Homo sapiens, UniProt P42336)
T1 construct: Full-length human p110α was expressed either in a complex with full-length human p85α (for HTS, biochemistry and HDX-MS); 6xHis tag followed by TEV protease site (N); host or cells: Spodoptera frugiperda Sf9, baculovirus
Assay: HDX-MS
Type: binding
Experimental: Sample preparation: HDX-MS experiments were carried out as described previously. […] In total, three biological replicates, i.e. three separate protein preparations, each with exchange experiments carried out in triplicate were conducted. Data presented in the manuscript is a single biological replicate. Data acquisition and analysis were as follows: Each sample was thawed and injected onto an M-Class Acquity UPLC with HDX Technology (Waters) kept at 0.1°C. Proteins were digested in-line using an Enzymate Pepsin Column (Waters, #186007233) at 15°C for 2 min at 200 μl/min. Peptic peptides were then eluted onto an Acquity UPLC BEH C18 Column (Waters, #186002346) equilibrated in Pepsin-A buffer (0.1% formic acid) and separated using a 5-35% gradient of Pepsin-B buffer (0.1% formic acid, 99% acetonitrile) over 7 min at a flowrate of 40 μl/min. Data were collected on a Waters Cyclic IMS, with an electrospray ionisation source, from 50-2000 m/z. Data were collected in the HDMS^E mode. A single pass of the cyclic IMS was conducted. A “blank” sample of protein dilution buffer with quench was run between samples, and carry-over of peptides was routinely monitored. Five replicates were used to identify non-deuterated peptides. Criteria used to include peptides in the HDX-MS dataset were: minimum intensity 5000, minimum sequence length 5, maximum sequence length 25, a minimum of 3 fragment ions, a minimum of 0.1 products per amino acid, a minimum score of 6.62, a maximum MH+ Error of 10 ppm, identification in at least two datasets with a retention time RSD of less than 10%. Data was analysed using Protein Lynx Global Server (Waters) and DynamX (Waters). All peptides were manually inspected for EX1 kinetics and sufficient quality of the peptide envelope. Data quality, experiment design, and reporting of data meets the criteria as determined by the HDX-MS community. Uptake files were created using Baryonyx. Data are available via ProteomeXchange with identifier PXD037721.

T1 sequence (P42336 whole entry): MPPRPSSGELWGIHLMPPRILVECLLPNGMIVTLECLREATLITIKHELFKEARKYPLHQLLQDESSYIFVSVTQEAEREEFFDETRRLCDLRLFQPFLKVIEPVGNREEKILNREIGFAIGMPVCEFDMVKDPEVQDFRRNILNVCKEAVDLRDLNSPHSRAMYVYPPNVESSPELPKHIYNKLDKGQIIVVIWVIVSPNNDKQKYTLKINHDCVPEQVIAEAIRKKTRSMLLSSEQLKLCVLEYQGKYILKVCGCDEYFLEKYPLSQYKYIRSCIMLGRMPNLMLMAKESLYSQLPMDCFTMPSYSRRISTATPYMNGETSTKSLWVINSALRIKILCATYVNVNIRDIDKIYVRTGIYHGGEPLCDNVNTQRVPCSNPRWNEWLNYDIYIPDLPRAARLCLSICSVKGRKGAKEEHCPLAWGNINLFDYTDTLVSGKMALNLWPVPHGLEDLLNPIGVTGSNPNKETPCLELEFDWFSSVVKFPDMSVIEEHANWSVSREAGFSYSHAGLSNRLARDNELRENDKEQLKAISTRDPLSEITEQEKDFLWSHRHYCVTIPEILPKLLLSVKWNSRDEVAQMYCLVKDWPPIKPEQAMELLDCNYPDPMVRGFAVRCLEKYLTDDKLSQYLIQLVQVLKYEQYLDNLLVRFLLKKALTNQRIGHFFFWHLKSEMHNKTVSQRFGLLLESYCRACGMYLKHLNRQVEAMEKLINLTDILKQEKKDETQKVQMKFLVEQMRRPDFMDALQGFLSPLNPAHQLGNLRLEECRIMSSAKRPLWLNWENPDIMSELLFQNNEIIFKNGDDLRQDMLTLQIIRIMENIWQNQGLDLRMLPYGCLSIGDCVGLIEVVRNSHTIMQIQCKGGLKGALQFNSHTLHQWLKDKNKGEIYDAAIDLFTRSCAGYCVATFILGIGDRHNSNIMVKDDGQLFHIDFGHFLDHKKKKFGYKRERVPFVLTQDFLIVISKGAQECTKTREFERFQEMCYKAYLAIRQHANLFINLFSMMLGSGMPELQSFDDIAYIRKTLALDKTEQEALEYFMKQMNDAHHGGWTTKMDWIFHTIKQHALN
T1 sequence (P27986 whole entry partner): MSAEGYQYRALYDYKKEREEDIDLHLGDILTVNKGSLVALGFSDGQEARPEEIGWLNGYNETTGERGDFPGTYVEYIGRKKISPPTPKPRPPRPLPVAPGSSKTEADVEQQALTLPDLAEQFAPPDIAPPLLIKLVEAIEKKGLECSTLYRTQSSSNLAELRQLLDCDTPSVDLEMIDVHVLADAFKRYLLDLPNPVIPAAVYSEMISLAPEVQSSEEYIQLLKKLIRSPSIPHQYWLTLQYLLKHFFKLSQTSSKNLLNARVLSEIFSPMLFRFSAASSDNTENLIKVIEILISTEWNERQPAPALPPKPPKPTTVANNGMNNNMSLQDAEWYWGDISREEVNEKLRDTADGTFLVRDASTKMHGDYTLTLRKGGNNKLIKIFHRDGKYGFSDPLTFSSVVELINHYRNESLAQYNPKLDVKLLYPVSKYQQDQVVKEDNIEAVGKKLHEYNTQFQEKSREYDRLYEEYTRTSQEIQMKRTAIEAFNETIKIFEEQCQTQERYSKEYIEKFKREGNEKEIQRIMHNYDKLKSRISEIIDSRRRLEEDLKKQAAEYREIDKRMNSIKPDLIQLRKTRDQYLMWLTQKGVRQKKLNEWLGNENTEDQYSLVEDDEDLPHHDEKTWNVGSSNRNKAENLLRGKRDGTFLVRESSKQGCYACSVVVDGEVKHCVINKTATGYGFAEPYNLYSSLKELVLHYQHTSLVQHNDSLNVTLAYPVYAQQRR

Structure (SMILES): CCN1CCN(c2ccc(Nc3cc(Nc4cccc5c4N(C(C)=O)CC5)ccn3)cc2)CC1 [Compound 1938]
- HDX difference, percentage (PK3CA_HUMAN peptide 487-498, time column 5 of 5): -0.361%
- HDX difference, percentage (PK3CA_HUMAN peptide 496-507, time column 1 of 5, deuterium exchange time 0.005): -1.7%
- HDX difference, percentage (PK3CA_HUMAN peptide 496-507, time column 2 of 5, deuterium exchange time 0.05): 0.429%
- HDX difference, percentage (PK3CA_HUMAN peptide 496-507, time column 3 of 5, deuterium exchange time 0.5): 0.5%
- HDX difference, percentage (PK3CA_HUMAN peptide 496-507, time column 4 of 5, deuterium exchange time 5): 0.6%
- HDX difference, percentage (PK3CA_HUMAN peptide 496-507, time column 5 of 5): 0.121%
- HDX difference, percentage (PK3CA_HUMAN peptide 508-520, time column 1 of 5, deuterium exchange time 0.005): -0.644%
- HDX difference, percentage (PK3CA_HUMAN peptide 508-520, time column 2 of 5, deuterium exchange time 0.05): 1.9%
- HDX difference, percentage (PK3CA_HUMAN peptide 508-520, time column 3 of 5, deuterium exchange time 0.5): 1.4%
- HDX difference, percentage (PK3CA_HUMAN peptide 508-520, time column 4 of 5, deuterium exchange time 5): 1.5%
- HDX difference, percentage (PK3CA_HUMAN peptide 508-520, time column 5 of 5): 0.952%
- HDX difference, percentage (PK3CA_HUMAN peptide 538-549, time column 1 of 5, deuterium exchange time 0.005): -0.8%
- HDX difference, percentage (PK3CA_HUMAN peptide 538-549, time column 2 of 5, deuterium exchange time 0.05): 1.0%
- HDX difference, percentage (PK3CA_HUMAN peptide 538-549, time column 3 of 5, deuterium exchange time 0.5): 0.441%
- HDX difference, percentage (PK3CA_HUMAN peptide 538-549, time column 4 of 5, deuterium exchange time 5): -1.1%
- HDX difference, percentage (PK3CA_HUMAN peptide 538-549, time column 5 of 5): -0.257%
- HDX difference, percentage (PK3CA_HUMAN peptide 538-554, time column 1 of 5, deuterium exchange time 0.005): -1.3%
- HDX difference, percentage (PK3CA_HUMAN peptide 538-554, time column 2 of 5, deuterium exchange time 0.05): 0.7%
- HDX difference, percentage (PK3CA_HUMAN peptide 538-554, time column 3 of 5, deuterium exchange time 0.5): 0.47%
- HDX difference, percentage (PK3CA_HUMAN peptide 538-554, time column 4 of 5, deuterium exchange time 5): -1.1%
- HDX difference, percentage (PK3CA_HUMAN peptide 538-554, time column 5 of 5): -0.74%
- HDX difference, percentage (PK3CA_HUMAN peptide 555-570, time column 1 of 5, deuterium exchange time 0.005): -1.2%
- HDX difference, percentage (PK3CA_HUMAN peptide 555-570, time column 2 of 5, deuterium exchange time 0.05): 0.462%
- HDX difference, percentage (PK3CA_HUMAN peptide 555-570, time column 3 of 5, deuterium exchange time 0.5): 0.2%
- HDX difference, percentage (PK3CA_HUMAN peptide 555-570, time column 4 of 5, deuterium exchange time 5): -1.4%
- HDX difference, percentage (PK3CA_HUMAN peptide 555-570, time column 5 of 5): -2.6%
- HDX difference, percentage (PK3CA_HUMAN peptide 571-583, time column 1 of 5, deuterium exchange time 0.005): -0.6%
- HDX difference, percentage (PK3CA_HUMAN peptide 571-583, time column 2 of 5, deuterium exchange time 0.05): 0.4%
- HDX difference, percentage (PK3CA_HUMAN peptide 571-583, time column 3 of 5, deuterium exchange time 0.5): 0.167%
- HDX difference, percentage (PK3CA_HUMAN peptide 571-583, time column 4 of 5, deuterium exchange time 5): -0.378%
- HDX difference, percentage (PK3CA_HUMAN peptide 571-583, time column 5 of 5): -1.4%
- HDX difference, percentage (PK3CA_HUMAN peptide 582-596, time column 1 of 5, deuterium exchange time 0.005): -1.6%
- HDX difference, percentage (PK3CA_HUMAN peptide 582-596, time column 2 of 5, deuterium exchange time 0.05): 0.374%
- HDX difference, percentage (PK3CA_HUMAN peptide 582-596, time column 3 of 5, deuterium exchange time 0.5): 0.262%
- HDX difference, percentage (PK3CA_HUMAN peptide 582-596, time column 4 of 5, deuterium exchange time 5): 0.76%
- HDX difference, percentage (PK3CA_HUMAN peptide 582-596, time column 5 of 5): 0.0749%
- HDX difference, percentage (PK3CA_HUMAN peptide 597-606, time column 1 of 5, deuterium exchange time 0.005): 0.175%
- HDX difference, percentage (PK3CA_HUMAN peptide 597-606, time column 2 of 5, deuterium exchange time 0.05): 1.6%
- HDX difference, percentage (PK3CA_HUMAN peptide 597-606, time column 3 of 5, deuterium exchange time 0.5): 0.5%
- HDX difference, percentage (PK3CA_HUMAN peptide 597-606, time column 4 of 5, deuterium exchange time 5): 1.4%
- HDX difference, percentage (PK3CA_HUMAN peptide 597-606, time column 5 of 5): 1.3%
- HDX difference, percentage (PK3CA_HUMAN peptide 610-637, time column 1 of 5, deuterium exchange time 0.005): -0.237%
- HDX difference, percentage (PK3CA_HUMAN peptide 610-637, time column 2 of 5, deuterium exchange time 0.05): 0.13%
- HDX difference, percentage (PK3CA_HUMAN peptide 610-637, time column 3 of 5, deuterium exchange time 0.5): 0.2%
- HDX difference, percentage (PK3CA_HUMAN peptide 610-637, time column 4 of 5, deuterium exchange time 5): 0.257%
- HDX difference, percentage (PK3CA_HUMAN peptide 610-637, time column 5 of 5): 0.128%
- HDX difference, percentage (PK3CA_HUMAN peptide 626-638, time column 1 of 5, deuterium exchange time 0.005): -1.2%
- HDX difference, percentage (PK3CA_HUMAN peptide 626-638, time column 2 of 5, deuterium exchange time 0.05): 1.0%
- HDX difference, percentage (PK3CA_HUMAN peptide 626-638, time column 3 of 5, deuterium exchange time 0.5): 0.459%
- HDX difference, percentage (PK3CA_HUMAN peptide 626-638, time column 4 of 5, deuterium exchange time 5): -0.333%
- HDX difference, percentage (PK3CA_HUMAN peptide 626-638, time column 5 of 5): -0.147%
- HDX difference, percentage (PK3CA_HUMAN peptide 647-658, time column 1 of 5, deuterium exchange time 0.005): -0.361%
- HDX difference, percentage (PK3CA_HUMAN peptide 647-658, time column 2 of 5, deuterium exchange time 0.05): 0.6%
- HDX difference, percentage (PK3CA_HUMAN peptide 647-658, time column 3 of 5, deuterium exchange time 0.5): 1.0%
- HDX difference, percentage (PK3CA_HUMAN peptide 647-658, time column 4 of 5, deuterium exchange time 5): 1.2%
- HDX difference, percentage (PK3CA_HUMAN peptide 647-658, time column 5 of 5): -0.0483%
- HDX difference, percentage (PK3CA_HUMAN peptide 661-687, time column 1 of 5, deuterium exchange time 0.005): -1.5%
- HDX difference, percentage (PK3CA_HUMAN peptide 661-687, time column 2 of 5, deuterium exchange time 0.05): 0.4%
- HDX difference, percentage (PK3CA_HUMAN peptide 661-687, time column 3 of 5, deuterium exchange time 0.5): 0.466%
- HDX difference, percentage (PK3CA_HUMAN peptide 661-687, time column 4 of 5, deuterium exchange time 5): 0.23%
- HDX difference, percentage (PK3CA_HUMAN peptide 661-687, time column 5 of 5): -0.271%
- HDX difference, percentage (PK3CA_HUMAN peptide 688-693, time column 1 of 5, deuterium exchange time 0.005): -3.1%
- HDX difference, percentage (PK3CA_HUMAN peptide 688-693, time column 2 of 5, deuterium exchange time 0.05): 0.6%
- HDX difference, percentage (PK3CA_HUMAN peptide 688-693, time column 3 of 5, deuterium exchange time 0.5): -0.142%
- HDX difference, percentage (PK3CA_HUMAN peptide 688-693, time column 4 of 5, deuterium exchange time 5): -0.352%
- HDX difference, percentage (PK3CA_HUMAN peptide 688-693, time column 5 of 5): -0.379%
- HDX difference, percentage (PK3CA_HUMAN peptide 692-703, time column 1 of 5, deuterium exchange time 0.005): -0.563%
- HDX difference, percentage (PK3CA_HUMAN peptide 692-703, time column 2 of 5, deuterium exchange time 0.05): 0.65%
- HDX difference, percentage (PK3CA_HUMAN peptide 692-703, time column 3 of 5, deuterium exchange time 0.5): 0.8%
- HDX difference, percentage (PK3CA_HUMAN peptide 692-703, time column 4 of 5, deuterium exchange time 5): 0.4%
- HDX difference, percentage (PK3CA_HUMAN peptide 692-703, time column 5 of 5): 0.166%
- HDX difference, percentage (PK3CA_HUMAN peptide 704-709, time column 1 of 5, deuterium exchange time 0.005): 0.4%
- HDX difference, percentage (PK3CA_HUMAN peptide 704-709, time column 2 of 5, deuterium exchange time 0.05): 0.074%
- HDX difference, percentage (PK3CA_HUMAN peptide 704-709, time column 3 of 5, deuterium exchange time 0.5): -1.2%
- HDX difference, percentage (PK3CA_HUMAN peptide 704-709, time column 4 of 5, deuterium exchange time 5): -0.7%
- HDX difference, percentage (PK3CA_HUMAN peptide 704-709, time column 5 of 5): 0.531%
